Common to all, as to format: biochemical
The target in one experiment is T1, IGFR-1 (Homo sapiens, UniProt P08069).
T1 construct: Kinases are expressed as either kinase domains or full length constructs; made in house
Nature of the experiment: Kinase inhibition assay, IGFR-1 (Table 2). Particulars: Table 2, kinase inhibition class.

In the next experiment the target is T2, EGFR (Homo sapiens, UniProt P00533).
T2 construct: Kinases are expressed as either kinase domains or full length constructs; made in house
Nature of the experiment: Kinase inhibition assay (33P transfer), EGFR. Particulars: Table 2, kinase inhibition class; read-out: EGFR-1. An outline of the steps:
(§1)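 GST/His-fusion kinases, E. coli or High Five expressed, affinity purified; 33P-ATP, plate-coated poly(Glu,Tyr) 4:1 or poly(Arg,Ser) 3:1; 0.5% H3PO4 wash, scintillant, LSC.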

The next experiment addresses T3, Kdr (Homo sapiens, UniProt P35968).
T3 construct: Kinases are expressed as either kinase domains or full length constructs; made in house
As to the kind of experiment: Kinase inhibition assay (33P transfer), Kdr. The settings on record: read-out: KDR-1. An outline of the steps:
(§2)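 Recombinant kinase-domain or full-length fusion proteins (GST or His tag) served as enzyme. Substrate poly(Glu,Tyr) 4:1 or poly(Arg,Ser) 3:1 was bound to the plate; transferred 33P was read by liquid scintillation following acid washing.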

In the next experiment the target is T4, AKT (Homo sapiens, UniProt Q9Y243).
T4 construct: Kinases are expressed as either kinase domains or full length constructs; made in house
T4 sequence (Q9Y243 whole entry, the tested form may be a part): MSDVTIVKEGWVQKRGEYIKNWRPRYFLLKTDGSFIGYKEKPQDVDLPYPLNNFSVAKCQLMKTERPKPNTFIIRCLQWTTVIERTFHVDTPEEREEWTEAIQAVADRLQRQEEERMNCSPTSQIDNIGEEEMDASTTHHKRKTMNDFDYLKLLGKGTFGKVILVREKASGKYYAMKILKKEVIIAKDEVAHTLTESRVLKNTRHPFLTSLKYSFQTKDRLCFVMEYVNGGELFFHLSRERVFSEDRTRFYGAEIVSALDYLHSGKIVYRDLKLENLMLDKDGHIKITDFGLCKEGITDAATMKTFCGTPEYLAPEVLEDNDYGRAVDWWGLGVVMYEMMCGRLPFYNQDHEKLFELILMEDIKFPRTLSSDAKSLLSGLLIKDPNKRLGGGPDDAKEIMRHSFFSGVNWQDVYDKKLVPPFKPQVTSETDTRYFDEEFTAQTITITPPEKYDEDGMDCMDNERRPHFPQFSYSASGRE
Nature of the experiment: Kinase inhibition assay (33P transfer), AKT. Particulars: Table 2, kinase inhibition class; read-out: AKT3-1. An outline of the steps: as §2

In a further experiment the target is T5, Itk (Homo sapiens, UniProt Q08881).
T5 construct: Kinases are expressed as either kinase domains or full length constructs; made in house
T5 sequence (Q08881 1-620): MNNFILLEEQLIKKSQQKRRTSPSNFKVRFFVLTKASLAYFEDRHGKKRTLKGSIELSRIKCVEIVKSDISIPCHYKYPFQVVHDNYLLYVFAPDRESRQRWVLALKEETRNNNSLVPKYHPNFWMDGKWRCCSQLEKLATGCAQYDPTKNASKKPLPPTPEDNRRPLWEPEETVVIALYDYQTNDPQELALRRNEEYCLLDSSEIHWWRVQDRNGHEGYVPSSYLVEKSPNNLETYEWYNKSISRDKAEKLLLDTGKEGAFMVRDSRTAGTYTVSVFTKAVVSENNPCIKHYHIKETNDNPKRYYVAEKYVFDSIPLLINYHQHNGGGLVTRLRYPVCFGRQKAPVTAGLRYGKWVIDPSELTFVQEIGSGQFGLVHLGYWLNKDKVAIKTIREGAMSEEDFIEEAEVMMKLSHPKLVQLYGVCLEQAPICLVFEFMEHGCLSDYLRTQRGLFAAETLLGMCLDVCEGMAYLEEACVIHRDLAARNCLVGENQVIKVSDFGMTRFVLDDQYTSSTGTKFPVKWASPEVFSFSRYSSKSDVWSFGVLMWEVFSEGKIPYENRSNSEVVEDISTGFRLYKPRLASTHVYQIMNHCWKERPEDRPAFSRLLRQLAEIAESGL
As to the kind of experiment: Kinase inhibition assay (33P transfer), Itk. Particulars: read-out: Itk-1. An outline of the steps: as §1

The target of the next experiment is T6, Tek (Homo sapiens, UniProt Q02763).
T6 construct: Kinases are expressed as either kinase domains or full length constructs; made in house
As to the kind of experiment: Kinase inhibition assay (33P transfer), Tek. Particulars: read-out: Tek-1. In outline:
as §1

The next experiment addresses T7, c-Met (Homo sapiens, UniProt P08581).
T7 construct: Kinases are expressed as either kinase domains or full length constructs; made in house
As to the kind of experiment: Kinase inhibition assay (33P transfer), c-Met. The settings on record: Table 2, kinase inhibition class; read-out: Met-1. In outline: as §1

The target in the next experiment is T8, Zap-70 (Homo sapiens, UniProt P43403).
T8 construct: Kinases are expressed as either kinase domains or full length constructs; made in house
T8 sequence (P43403 1-619): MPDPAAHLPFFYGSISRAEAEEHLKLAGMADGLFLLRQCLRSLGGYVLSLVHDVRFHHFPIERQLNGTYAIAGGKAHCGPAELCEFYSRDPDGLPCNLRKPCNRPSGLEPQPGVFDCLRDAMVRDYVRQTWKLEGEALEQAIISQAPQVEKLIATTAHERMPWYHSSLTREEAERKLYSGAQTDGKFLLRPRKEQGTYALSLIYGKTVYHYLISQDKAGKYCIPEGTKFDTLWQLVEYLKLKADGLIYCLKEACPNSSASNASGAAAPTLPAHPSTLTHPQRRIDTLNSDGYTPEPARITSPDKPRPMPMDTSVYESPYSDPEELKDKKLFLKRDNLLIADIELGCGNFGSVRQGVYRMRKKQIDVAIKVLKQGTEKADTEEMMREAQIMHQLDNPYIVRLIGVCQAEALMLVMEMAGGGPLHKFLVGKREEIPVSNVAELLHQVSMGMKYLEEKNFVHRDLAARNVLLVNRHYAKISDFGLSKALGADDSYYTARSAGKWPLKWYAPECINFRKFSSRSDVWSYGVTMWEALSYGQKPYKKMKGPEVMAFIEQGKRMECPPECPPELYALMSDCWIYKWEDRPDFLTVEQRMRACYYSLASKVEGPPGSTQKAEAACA
Nature of the experiment: Kinase inhibition assay (33P transfer), Zap-70. The settings on record: read-out: Zap-1. In outline: as §2

The target in another experiment is T9, Lck (Homo sapiens, UniProt P06239).
T9 construct: Kinases are expressed as either kinase domains or full length constructs; made in house
T9 sequence (P06239 whole entry, species assumed, the tested form may be a part): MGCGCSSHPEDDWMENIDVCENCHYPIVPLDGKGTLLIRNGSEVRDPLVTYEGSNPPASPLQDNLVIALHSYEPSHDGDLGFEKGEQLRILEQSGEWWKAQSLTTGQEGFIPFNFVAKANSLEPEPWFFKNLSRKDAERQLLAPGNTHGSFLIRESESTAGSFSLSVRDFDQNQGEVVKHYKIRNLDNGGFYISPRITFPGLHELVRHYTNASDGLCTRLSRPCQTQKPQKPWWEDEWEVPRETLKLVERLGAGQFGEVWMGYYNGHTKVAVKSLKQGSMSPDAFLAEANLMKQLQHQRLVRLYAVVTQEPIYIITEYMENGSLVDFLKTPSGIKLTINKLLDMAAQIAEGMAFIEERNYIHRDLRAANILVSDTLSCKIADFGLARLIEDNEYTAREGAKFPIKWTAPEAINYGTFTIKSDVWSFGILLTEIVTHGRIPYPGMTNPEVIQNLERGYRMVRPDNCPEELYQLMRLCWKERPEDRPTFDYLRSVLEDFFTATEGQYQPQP
Nature of the experiment: Kinase inhibition assay (33P transfer), Lck. Particulars: read-out: Lck-1. An outline of the steps:
as §2

For another experiment, the target named is T10, ErbB2 (Homo sapiens, UniProt P04626).
T10 construct: Kinases are expressed as either kinase domains or full length constructs; made in house
T10 sequence (P04626 23-1255, species assumed): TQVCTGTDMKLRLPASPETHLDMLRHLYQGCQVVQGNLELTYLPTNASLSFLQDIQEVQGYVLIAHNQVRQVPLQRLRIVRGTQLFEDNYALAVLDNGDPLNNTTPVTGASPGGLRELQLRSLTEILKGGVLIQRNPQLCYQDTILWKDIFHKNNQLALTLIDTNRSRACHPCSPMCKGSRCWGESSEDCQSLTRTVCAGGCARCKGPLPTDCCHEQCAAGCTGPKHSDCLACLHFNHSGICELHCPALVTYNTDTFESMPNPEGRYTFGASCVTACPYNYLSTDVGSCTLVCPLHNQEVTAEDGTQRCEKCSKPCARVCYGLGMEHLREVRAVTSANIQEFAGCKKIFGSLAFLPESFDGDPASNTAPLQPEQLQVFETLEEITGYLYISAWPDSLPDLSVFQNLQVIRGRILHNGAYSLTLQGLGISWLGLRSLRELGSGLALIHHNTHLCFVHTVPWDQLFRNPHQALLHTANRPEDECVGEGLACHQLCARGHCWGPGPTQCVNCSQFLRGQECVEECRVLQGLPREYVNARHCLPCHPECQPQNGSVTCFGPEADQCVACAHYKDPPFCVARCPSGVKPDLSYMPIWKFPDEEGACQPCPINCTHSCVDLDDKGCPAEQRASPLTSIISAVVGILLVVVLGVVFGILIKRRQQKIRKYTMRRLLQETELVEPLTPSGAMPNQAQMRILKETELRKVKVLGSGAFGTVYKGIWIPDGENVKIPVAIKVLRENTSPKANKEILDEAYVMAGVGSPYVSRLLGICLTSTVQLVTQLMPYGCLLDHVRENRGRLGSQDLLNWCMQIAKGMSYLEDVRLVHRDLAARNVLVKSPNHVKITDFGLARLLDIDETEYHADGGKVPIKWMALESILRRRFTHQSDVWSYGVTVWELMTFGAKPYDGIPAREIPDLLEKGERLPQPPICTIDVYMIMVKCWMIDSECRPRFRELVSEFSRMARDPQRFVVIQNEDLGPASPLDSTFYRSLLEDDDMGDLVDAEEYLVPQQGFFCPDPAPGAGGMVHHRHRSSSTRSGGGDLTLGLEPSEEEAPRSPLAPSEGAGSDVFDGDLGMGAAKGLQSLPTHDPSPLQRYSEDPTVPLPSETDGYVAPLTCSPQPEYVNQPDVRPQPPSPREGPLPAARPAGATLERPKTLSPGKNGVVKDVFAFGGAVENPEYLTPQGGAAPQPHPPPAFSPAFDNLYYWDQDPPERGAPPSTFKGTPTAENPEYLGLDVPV
Nature of the experiment: Kinase inhibition assay (33P transfer), ErbB2. Particulars: read-out: ErbB2-2. The text has this:
The inhibitor compounds described herein are screened in the following manner. Kinases suitable for use in the following protocol to determine kinase activity of the compounds described herein include, -but are not limited to: Lck, Lyn, Src, Fyn, Syk, Zap-70, Itk, Tec, Btk, EGFR, ErbB2, Kdr, Flt-1, Flt-3, Tek, c-Met, InsR, and AKT.
Kinases are expressed as either kinase domains or full length constructs fused to glutathione S-transferase (GST) or polyHistidine tagged fusion proteins in either E. colior Baculovirus-High Five expression systems. They are purified to near homogeneity by affinity chromatography essentially as previously described (Lehr et al., 1996; Gish et al., 1995). In some instances, kinases are co-expressed or mixed with purified or partially purified regulatory polypeptides prior to measurement of activity.
Kinase activity and inhibition are measured essentially by established protocols (Braunwalder et al., 1996). Briefly, The transfer of ^33PO4 from ATP to the synthetic substrates poly(Glu, Tyr) 4:1 or poly(Arg, Ser) 3:1 attached to the bioactive surface of microtiter plates serves as the basis to evaluate enzyme activity. After an incubation period, the amount of phosphate transferred is measured by first washing the plate with 0.5% phosphoric acid, adding liquid scintillant, and then counting in a liquid scintillation detector. The IC50 is determined by the concentration of compound that causes a 50% reduction in the amount of […] incorporated onto the substrate bound to the plate.

For a further experiment, the target named is T11, PDGFRB (Homo sapiens, UniProt P09619).
T11 construct: Kinases are expressed as either kinase domains or full length constructs; made in house
Nature of the experiment: Kinase inhibition assay (33P transfer), PDGFRB. Particulars: read-out: PDGFRB-1.

Molecules are shown by their SMILES.

T7 sequence (P08581 25-1390): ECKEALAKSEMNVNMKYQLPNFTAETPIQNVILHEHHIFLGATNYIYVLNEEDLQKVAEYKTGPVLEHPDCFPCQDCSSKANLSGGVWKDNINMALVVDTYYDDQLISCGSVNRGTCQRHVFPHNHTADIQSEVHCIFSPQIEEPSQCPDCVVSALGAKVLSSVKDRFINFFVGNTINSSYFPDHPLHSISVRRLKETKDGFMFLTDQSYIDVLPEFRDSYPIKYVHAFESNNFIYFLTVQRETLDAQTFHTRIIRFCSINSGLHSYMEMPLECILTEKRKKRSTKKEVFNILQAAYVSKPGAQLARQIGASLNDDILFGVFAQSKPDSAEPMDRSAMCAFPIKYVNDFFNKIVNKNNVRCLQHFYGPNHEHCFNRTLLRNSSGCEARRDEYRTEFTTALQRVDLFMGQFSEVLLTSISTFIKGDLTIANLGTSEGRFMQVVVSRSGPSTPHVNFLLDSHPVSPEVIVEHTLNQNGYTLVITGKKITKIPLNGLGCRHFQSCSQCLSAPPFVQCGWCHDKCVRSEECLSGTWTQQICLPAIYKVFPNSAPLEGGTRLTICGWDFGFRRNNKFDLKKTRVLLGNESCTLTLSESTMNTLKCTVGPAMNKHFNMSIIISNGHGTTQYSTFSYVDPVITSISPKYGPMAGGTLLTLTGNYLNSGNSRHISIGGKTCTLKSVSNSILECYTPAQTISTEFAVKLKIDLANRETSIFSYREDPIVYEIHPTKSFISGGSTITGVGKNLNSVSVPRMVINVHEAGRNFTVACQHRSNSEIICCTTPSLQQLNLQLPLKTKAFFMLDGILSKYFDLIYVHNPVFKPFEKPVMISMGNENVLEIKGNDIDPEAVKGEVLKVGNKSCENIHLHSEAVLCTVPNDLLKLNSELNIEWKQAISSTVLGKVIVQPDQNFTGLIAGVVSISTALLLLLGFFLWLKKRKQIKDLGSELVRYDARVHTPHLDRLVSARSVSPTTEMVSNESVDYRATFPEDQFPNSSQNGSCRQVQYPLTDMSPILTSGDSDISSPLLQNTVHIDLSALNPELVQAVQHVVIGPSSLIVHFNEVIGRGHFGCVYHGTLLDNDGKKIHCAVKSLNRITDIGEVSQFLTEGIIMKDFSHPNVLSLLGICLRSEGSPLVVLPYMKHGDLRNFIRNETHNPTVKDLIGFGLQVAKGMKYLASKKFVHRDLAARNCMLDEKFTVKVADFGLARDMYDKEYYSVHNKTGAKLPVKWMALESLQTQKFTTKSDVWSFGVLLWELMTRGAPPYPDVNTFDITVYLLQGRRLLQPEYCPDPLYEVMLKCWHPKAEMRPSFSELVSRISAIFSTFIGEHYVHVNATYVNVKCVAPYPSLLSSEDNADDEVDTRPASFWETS
T3 sequence (P35968 20-1356, species assumed): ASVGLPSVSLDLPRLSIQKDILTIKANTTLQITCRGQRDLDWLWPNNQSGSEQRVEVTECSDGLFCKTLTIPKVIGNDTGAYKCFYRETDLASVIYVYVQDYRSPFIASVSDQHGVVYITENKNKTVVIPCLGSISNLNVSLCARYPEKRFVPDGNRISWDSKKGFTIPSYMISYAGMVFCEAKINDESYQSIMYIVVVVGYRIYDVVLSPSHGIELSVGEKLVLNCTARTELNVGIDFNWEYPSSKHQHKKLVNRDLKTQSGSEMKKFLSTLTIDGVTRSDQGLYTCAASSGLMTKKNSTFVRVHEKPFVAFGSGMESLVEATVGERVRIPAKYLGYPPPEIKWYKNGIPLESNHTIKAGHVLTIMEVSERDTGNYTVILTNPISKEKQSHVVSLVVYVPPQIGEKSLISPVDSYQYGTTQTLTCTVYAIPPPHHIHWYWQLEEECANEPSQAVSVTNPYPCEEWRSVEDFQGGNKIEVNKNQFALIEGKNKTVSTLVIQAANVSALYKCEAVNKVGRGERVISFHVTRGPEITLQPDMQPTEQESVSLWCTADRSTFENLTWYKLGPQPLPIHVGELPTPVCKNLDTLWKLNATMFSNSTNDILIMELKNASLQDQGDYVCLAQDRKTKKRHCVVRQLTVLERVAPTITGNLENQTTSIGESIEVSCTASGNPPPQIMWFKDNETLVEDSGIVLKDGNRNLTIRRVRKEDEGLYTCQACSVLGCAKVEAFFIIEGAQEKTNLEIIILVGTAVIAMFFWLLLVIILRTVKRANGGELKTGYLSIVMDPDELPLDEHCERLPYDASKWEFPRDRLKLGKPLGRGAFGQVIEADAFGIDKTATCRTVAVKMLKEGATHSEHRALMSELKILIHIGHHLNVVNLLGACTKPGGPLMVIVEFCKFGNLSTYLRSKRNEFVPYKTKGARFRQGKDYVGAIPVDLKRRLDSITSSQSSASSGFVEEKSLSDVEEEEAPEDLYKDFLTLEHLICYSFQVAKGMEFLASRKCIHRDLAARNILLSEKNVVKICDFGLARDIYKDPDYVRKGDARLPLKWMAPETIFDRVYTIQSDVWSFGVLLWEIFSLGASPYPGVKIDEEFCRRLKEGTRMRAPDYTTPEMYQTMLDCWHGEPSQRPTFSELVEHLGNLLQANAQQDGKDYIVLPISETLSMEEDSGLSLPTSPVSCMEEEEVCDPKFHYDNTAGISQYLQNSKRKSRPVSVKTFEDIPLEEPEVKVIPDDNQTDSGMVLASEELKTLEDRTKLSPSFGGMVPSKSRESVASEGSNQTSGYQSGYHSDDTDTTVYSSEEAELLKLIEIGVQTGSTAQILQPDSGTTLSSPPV

On to `NC(=O)c1ccccc1Nc1ncnc(-n2c(N)nc3ccccc32)n1` [Compound 473], for which the IC50 against IGFR-1 is 6.93 to 10.1 µM; at EGFR, over 13 µM; at Kdr, 10.1 to 13 µM; at AKT it was over 13 µM; at Itk it was over 13 µM; at Tek, over 13 µM. Besides, the IC50 was in the range of 10.1 to 13 µM at c-Met, 10.1 to 13 µM at Zap-70, 6.93 to 10.1 µM at Lck and 10.1 to 13 µM on ErbB2.
For `COC(=O)c1cc(OC)c(OC)cc1Nc1ncnc(-n2c(N)nc3ccccc32)n1` [Compound 476], the IC50 at IGFR-1 was 0.949 to 5.7 µM; on EGFR, over 10.7 µM; at Kdr it was 8.31 to 10.7 µM; on AKT, over 10.7 µM; on Itk it was over 10.7 µM; on Tek, over 10.7 µM. The IC50 on c-Met was over 10.7 µM; at Zap-70 it was over 10.7 µM; on Lck, over 10.7 µM; on ErbB2, 5.7 to 8.31 µM.
In the case of `COc1cc(Nc2ncnc(Nc3cc(-c4ccc(C)cc4)n[nH]3)n2)cc(OC)c1OC` [Compound 521], the IC50 is under 0.923 µM against IGFR-1; 0.923 to 5.54 µM on EGFR; under 0.923 µM at Kdr; over 10.4 µM at AKT; 0.923 to 5.54 µM on Itk; over 10.4 µM on Tek. For the same compound, the IC50 is under 0.923 µM on c-Met, over 10.4 µM at Zap-70, under 0.923 µM at Lck and 0.923 to 5.54 µM on ErbB2.
Regarding `COc1cc(C)c(Nc2ncnc(-n3c(N)nc4ccccc43)n2)cc1OC` [Compound 524], the IC50 against IGFR-1 was under 1.06 µM; at EGFR, over 11.9 µM; on Kdr, 1.06 to 6.36 µM; at AKT, over 11.9 µM; at Itk, 9.27 to 11.9 µM; on Tek, over 11.9 µM. The IC50 on c-Met was 6.36 to 9.27 µM; on Zap-70, over 11.9 µM; on Lck, 6.36 to 9.27 µM; on ErbB2, 6.36 to 9.27 µM.
As to `COc1cc(Nc2ncnc(Oc3ccc(OCc4ccccc4)cc3)n2)cc(OC)c1OC` [Compound 530], the IC50 on IGFR-1, on EGFR, at Kdr, on AKT, at Itk and at PDGFRB was over 9.77 µM throughout. The IC50 on c-Met, on Zap-70, at Lck and on ErbB2 was over 9.77 µM each time.
As to `O=C(O)Cc1cccc(Nc2ncnc(-n3c(NCc4ccccc4)nc4ccccc43)n2)c1` [Compound 531], the IC50 at IGFR-1 was over 9.97 µM; at EGFR it was under 0.886 µM; at Kdr it was under 0.886 µM; at AKT, over 9.97 µM; on Itk it was over 9.97 µM; at PDGFRB it was under 0.886 µM. Also, the IC50 was 7.75 to 9.97 µM at c-Met, over 9.97 µM at Zap-70, 0.886 to 5.32 µM on Lck and under 0.886 µM at ErbB2.
In the case of `O=C(O)Cc1cccc(Nc2ncnc(-n3c(NCc4ccccn4)nc4ccccc43)n2)c1` [Compound 533], the IC50 is over 9.95 µM at IGFR-1; over 9.95 µM at EGFR; under 0.884 µM on Kdr; over 9.95 µM on AKT; over 9.95 µM on Itk; 0.884 to 5.3 µM at PDGFRB. Further, the IC50 on c-Met, at Zap-70, at Lck and at ErbB2 was over 9.95 µM throughout.
In the case of `COc1ccc(CNc2nc3ccccc3n2-c2ncnc(Nc3cccc(CC(=O)O)c3)n2)cc1` [Compound 534], the IC50 against IGFR-1 is over 9.35 µM; at EGFR it was over 9.35 µM; at Kdr it was under 0.831 µM; at AKT, over 9.35 µM; on Itk, over 9.35 µM; on PDGFRB it was 0.831 to 4.98 µM. For the same compound, the IC50 on c-Met was over 9.35 µM; at Zap-70 it was over 9.35 µM; at Lck it was 7.27 to 9.35 µM; at ErbB2, over 9.35 µM.
For the compound `COc1ccc(Nc2ncnc(N3CCCc4ccc(C(F)(F)F)cc43)n2)cc1OC` [Compound 535], the IC50 against IGFR-1 was over 10.4 µM; at EGFR, under 0.927 µM; at Kdr it was 0.927 to 5.56 µM; at AKT it was over 10.4 µM; at Itk, over 10.4 µM; at PDGFRB, 5.56 to 8.11 µM. The IC50 on c-Met was 0.927 to 5.56 µM; at Zap-70, over 10.4 µM; at Lck, 0.927 to 5.56 µM; on ErbB2, under 0.927 µM.
Consider `COc1ccc(Nc2ncnc(Nc3cccc(-c4ccnc(C)n4)c3)n2)cc1OC` [Compound 789], for which the IC50 against IGFR-1 is 0.963 to 5.78 µM; at EGFR, over 10.8 µM; on Kdr, over 10.8 µM; on AKT, over 10.8 µM; at Itk, over 10.8 µM; at PDGFRB it was 5.78 to 8.42 µM. For the same compound, the IC50 on c-Met is over 10.8 µM; on Zap-70 it was over 10.8 µM; at Lck it was 0.963 to 5.78 µM.
On to `COc1cc(Nc2ncnc(Nc3cc(-c4cccc(C(F)(F)F)c4)n[nH]3)n2)cc(OC)c1OC` [Compound 1000], for which the IC50 at IGFR-1 was 0.821 to 4.92 µM; at EGFR, 4.92 to 7.18 µM; on Kdr, 0.821 to 4.92 µM; at AKT, 7.18 to 9.23 µM; on Itk, over 9.23 µM; at Tek, over 9.23 µM. Also, the IC50 is 4.92 to 7.18 µM on c-Met, over 9.23 µM on Zap-70, 0.821 to 4.92 µM on Lck and 4.92 to 7.18 µM at ErbB2.
Regarding `COc1cc(Nc2ncnc(Nc3cc(-c4cccc(C)c4)n[nH]3)n2)cc(OC)c1OC` [Compound 1001], the IC50 at IGFR-1 is under 0.923 µM; at EGFR it was 0.923 to 5.54 µM; on Kdr it was 0.923 to 5.54 µM; at AKT, over 10.4 µM; on Itk, 0.923 to 5.54 µM; at Tek, over 10.4 µM. In addition, the IC50 is under 0.923 µM at c-Met, over 10.4 µM at Zap-70, under 0.923 µM at Lck and 0.923 to 5.54 µM at ErbB2.
